Assays:
[1] = Inhibitory activity against slow component of delayed rectifier potassium current IKs in guinea pig ventricular myocytes; assay type: cell-based, Cavia porcellus, Ventricular myocyte
[2] = Inhibition of rapid component of delayed rectifier potassium current IKr in guinea pig ventricular myocytes; assay type: cell-based, Cavia porcellus, Ventricular myocyte
[3] = Cavia porcellus, Ventricular myocyte

| SMILES | IC50 [1, 3] [nM] | IC50 ([1]; ventricular myocyte) [nM] | also measured |
| --- | --- | --- | --- |
| O=C1c2ccc(-c3ccccc3)cc2CCC1CCN1CCC(c2ccccc2)CC1 (stereo unspecified) | 2400 | – | – |
| COc1ccc2c(c1)CCC(CN1CCC(c3ccccc3)CC1)C2=O (stereo unspecified) | 5000 | – | IC50 [2, 3]: 4000 nM |
| O[C@H]1c2ccc(OCc3ccccc3-c3ccccc3)cc2CC[C@H]1CCN1CCC(c2ccccc2)CC1 | 390 | – | – |
| O=C1c2ccc(OCc3ccc(-c4ccccc4)cc3)cc2CCC1CCN1CCC(c2ccccc2)CC1 (stereo unspecified) | 1000 | – | – |
| O=C1c2ccc(OCc3ccccc3)cc2CCC1CC(=O)N1CCC(c2ccccc2)CC1 (stereo unspecified) | > 30000 | – | – |
| O=C1c2ccc(OCc3ccccc3-c3ccccc3)cc2CCC1CCN1CCC(c2ccccc2)CC1 (single isomer, unassigned) | – | 340 | IC50 ([2]; ventricular myocyte): 1600 nM |
| OC1c2ccc(OCc3ccccc3)cc2CCC1CCN1CCC(c2ccccc2)CC1 (single isomer, unassigned) | – | 1300 | IC50 ([2]; ventricular myocyte): 110 nM |
| O[C@@H]1c2ccc(OCc3ccccc3-c3ccccc3)cc2CC[C@H]1CCN1CCC(c2ccccc2)CC1 (stereo in doubt) | – | 1000 | – |
| OC1c2ccc(OCc3ccccc3)cc2CCC1CCN1CCC(c2ccccc2)CC1 (stereo in doubt; 7b) | – | 150 | IC50 [2, 3]: 170 nM |
| O=C1c2ccc(OCc3ccccc3-c3ccccc3)cc2CCC1CCN1CCC(c2ccccc2)CC1 (stereo in doubt; 10d) | – | 30 | IC50 ([2]; ventricular myocyte): 260 nM |
| O[C@@H]1c2ccc(OCc3ccccc3-c3ccccc3)cc2CC[C@H]1CCN1CCC(c2ccccc2)CC1 (stereo in doubt; 14a) | – | 37 | – |

The next lines start with results.

| IC50 [1, 3] [nM] | IC50 ([1]; ventricular myocyte) [nM] | SMILES | also measured |
| --- | --- | --- | --- |
| 1500 | – | O=C1c2ccc(Oc3ccccc3)cc2CCC1CCN1CCC(c2ccccc2)CC1 (stereo unspecified) | – |
| 470 | – | O=C1c2ccc(OCc3cccc(-c4ccccc4)c3)cc2CCC1CCN1CCC(c2ccccc2)CC1 (stereo unspecified) | – |
| 1300 | – | O=C1c2ccc(OCc3ccccn3)cc2CCC1CCN1CCC(c2ccccc2)CC1 (stereo unspecified) | – |
| 380 | – | O=C1c2ccc(OCc3cccnc3)cc2CCC1CCN1CCC(c2ccccc2)CC1 (stereo unspecified) | – |
| 200 | – | O=C1c2ccc(OCc3ccncc3)cc2CCC1CCN1CCC(c2ccccc2)CC1 (stereo unspecified) | – |
| – | 1700 | COc1ccc2c(c1)CCC(CCN1CCC(c3ccccc3)CC1)C2=O (single isomer, unassigned) | – |
| – | 400 | COc1ccc2c(c1)CCC(CCN1CCC(c3ccccc3)CC1)C2=O (stereo in doubt; 8a) | IC50 [2, 3]: 1700 nM |
| – | 69 | O=C1c2ccc(OCc3ccccc3)cc2CCC1CCN1CCC(c2ccccc2)CC1 (stereo in doubt; 8b) | IC50 ([2]; ventricular myocyte): 160 nM |

From ChEMBL document CHEMBL1149235, “Tetrahydronaphthalene-derived amino alcohols and amino ketones as potent and selective inhibitors of the delayed rectifier potassium current IKs” (Bioorg Med Chem Lett, 2004)
